Target: T1, human PTH1 receptor (Homo sapiens, UniProt Q03431)
T1 sequence (Q03431 27-593): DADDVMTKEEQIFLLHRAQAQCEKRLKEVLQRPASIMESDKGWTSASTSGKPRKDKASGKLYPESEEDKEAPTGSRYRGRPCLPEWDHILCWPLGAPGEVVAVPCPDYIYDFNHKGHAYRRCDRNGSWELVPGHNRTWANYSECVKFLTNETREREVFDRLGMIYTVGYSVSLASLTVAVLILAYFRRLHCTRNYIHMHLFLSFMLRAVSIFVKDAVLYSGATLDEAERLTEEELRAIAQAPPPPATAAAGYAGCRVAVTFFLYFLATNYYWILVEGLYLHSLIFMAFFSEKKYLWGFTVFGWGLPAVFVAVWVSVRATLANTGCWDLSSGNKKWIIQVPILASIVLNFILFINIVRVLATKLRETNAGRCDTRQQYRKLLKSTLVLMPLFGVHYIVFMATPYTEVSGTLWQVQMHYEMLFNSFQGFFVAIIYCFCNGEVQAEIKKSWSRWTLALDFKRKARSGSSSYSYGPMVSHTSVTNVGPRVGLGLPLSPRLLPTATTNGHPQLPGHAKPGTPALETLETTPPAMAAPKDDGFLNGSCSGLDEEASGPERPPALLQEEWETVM
Experiment: In vitro cAMP signal activity in HKRK-B7 cells (LLC-PK1 cells overexpressing the human PTH1 receptor)
Format: cell-based
Conditions: HKRK-B7 cells; compound at 1×10^−3 M; cAMP produced as percentage of that produced by hPTH(1-34) at 100 nM

| cAMP production activity (%) | SMILES |
| --- | --- |
| 24 | Cc1cc(N(C)C(N)=O)cc(C)c1CCS(=O)(=O)N1CCC2(CC1)N=C(CCCCCCCCCCCC(=O)O)NC2=O [Compound 1170, 12-(8-{2-[2,6-dimethyl-4-(1-methyl-ureido)-phenyl]-ethanesulfonyl}-4-oxo-1,3,8-triaza-spiro[4.5]dec-1-en-2-yl)-dodecanoic acid] |
| 28 | Cc1cc(N(C)C(N)=O)cc(C)c1/C=C/S(=O)(=O)N1CCC2(CC1)N=C(CCCCCCCCCC(=O)O)NC2=O [Compound 1171, 10-(8-{(E)-2-[2,6-Dimethyl-4-(1-methyl-ureido)-phenyl]-ethenesulfonyl}-4-oxo-1,3,8-triaza-spiro[4.5]dec-1-en-2-yl)-decanoic acid] |
| 73 | Cc1cc(N(C)C(N)=O)cc(C)c1/C=C/S(=O)(=O)N1CCC2(CC1)N=C(CCCCCCCCCC(N)=O)NC2=O [Compound 1172, 10-(8-{(E)-2-[2,6-Dimethyl-4-(1-methyl-ureido)-phenyl]-ethenesulfonyl}-4-oxo-1,3,8-triaza-spiro[4.5]dec-1-en-2-yl)-decanoic amide] |
| 85 | Cc1cc(N(C)C(N)=O)cc(C)c1/C=C/S(=O)(=O)N1CCC2(CC1)N=C(CCCCCCCCCCCC(N)=O)NC2=O [Compound 1173, 12-(8-{(E)-2-[2,6-dimethyl-4-(1-methyl-ureido)-phenyl]-ethenesulfonyl}-4-oxo-1,3,8-triaza-spiro[4.5]dec-1-en-2-yl)-dodecanoic acid amide] |
| 91 | Cc1cc(N(C)C(N)=O)cc(C)c1CCS(=O)(=O)N1CCC2(CC1)N=C(CCCCCCCCCCCC(N)=O)NC2=O [Compound 1174, 12-(8-{2-[2,6-dimethyl-4-(1-methyl-ureido)-phenyl]-ethanesulfonyl}-4-oxo-1,3,8-triaza-spiro[4.5]dec-1-en-2-yl)-dodecanoic acid amide] |
| 81 | Cc1cc(N(C)C(N)=O)cc(C)c1/C=C/S(=O)(=O)N1CCC2(CC1)N=C(CCCCCCCCCCCCCC(N)=O)NC2=O [Compound 1175, 14-(8-{(E)-2-[2,6-dimethyl-4-(1-methyl-ureido)-phenyl]-ethenesulfonyl}-4-oxo-1,3,8-triaza-spiro[4.5]dec-1-en-2-yl)-tetradecanoic acid amide] |
| 82 | Cc1cc(N(C)C(N)=O)cc(C)c1CCS(=O)(=O)N1CCC2(CC1)N=C(CCCCCCCCCCCCCC(N)=O)NC2=O [Compound 1176, 14-(8-{2-[2,6-dimethyl-4-(1-methyl-ureido)-phenyl]-ethanesulfonyl}-4-oxo-1,3,8-triaza-spiro[4.5]dec-1-en-2-yl)-tetradecanoic acid amide] |
| 84 | Cc1cc2nc(N)oc2c(C)c1CCS(=O)(=O)N1CCC2(CC1)N=C(C1CCC(C)CC1)NC2=O (stereo not drawn) [Compound 1178, 8-[2-(2-Amino-5,7-dimethyl-benzoxazol-6-yl)-ethanesulfonyl]-2-(4-methyl-cyclohexyl)-1,3,8-triaza-spiro[4.5]dec-1-en-4-one] |
| 65 | Cc1cc(C(=O)N2CCOC2=O)cc(C)c1CCS(=O)(=O)N1CCC2(CC1)N=C(C1CCCCC1)NC2=O [Compound 1179, 2-Cyclohexyl-8-{2-[2,6-dimethyl-4-(2-oxo-oxazolidine-3-carbonyl)-phenyl]-ethanesulfonyl}-1,3,8-triaza-spiro[4.5]dec-1-en-4-one] |
| 73 | CON(C)C(=O)c1cc(C)c(CCS(=O)(=O)N2CCC3(CC2)N=C(C2CCC(C)CC2)NC3=O)c(C)c1 (stereo not drawn) [Compound 1180, N-methoxy-3,5,N-trimethyl-4-{2-[2-(4-methyl-cyclohexyl)-4-oxo-1,3,8-triaza-spiro[4.5]dec-1-ene-8-sulfonyl]-ethyl}-benzamide] |
| 98 | Cc1cc(C(=O)N2CCCO2)cc(C)c1CCS(=O)(=O)N1CCC2(CC1)N=C(C1CCC(CCC(F)(F)F)CC1)NC2=O (stereo not drawn) [Compound 1181, 8-{2-[4-(isoxazolidine-2-carbonyl)-2,6-dimethyl-phenyl]-ethanesulfonyl}-2-[4-(3,3,3-trifluoro-propyl)-cyclohexyl]-1,3,8-triaza-spiro[4.5]dec-1-en-4-one] |
| 109 | Cc1cc(C(=O)N2CCCO2)cc(C)c1CCS(=O)(=O)N1CCC2(CC1)N=C(C1CCC(C)CC1)NC2=O (stereo not drawn) [Compound 1182, 8-{2-[4-(isoxazolidine-2-carbonyl)-2,6-dimethyl-phenyl]-ethanesulfonyl}-2-(4-methyl-cyclohexyl)-1,3,8-triaza-spiro[4.5]dec-1-en-4-one] |
| 90 | Cc1cc(C(=O)N2CCS(=O)(=O)CC2)cc(C)c1CCS(=O)(=O)N1CCC2(CC1)N=C(C1CCC(C)CC1)NC2=O (stereo not drawn) [Compound 1183, 8-{2-[4-(1,1-dioxo-1λ^6-thiomorpholine-4-carbonyl)-2,6-dimethyl-phenyl]-ethanesulfonyl}-2-(4-methyl-cyclohexyl)-1,3,8-triaza-spiro[4.5]dec-1-en-4-one] |
| 108 | Cc1cc(C(=O)N2CCC(OC[C@H](O)CO)CC2)cc(C)c1CCS(=O)(=O)N1CCC2(CC1)N=C(CCCCCCCCC(F)(F)F)NC2=O [Compound 1184, 8-(2-{4-[4-((R)-2,3-dihydroxy-propoxy)-piperidine-1-carbonyl]-2,6-dimethyl-phenyl}-ethanesulfonyl)-2-(9,9,9-trifluoro-nonyl)-1,3,8-triaza-spiro[4.5]dec-1-en-4-one] |
| 102 | Cc1cc(C(=O)N2CCC(C)(O)CC2)cc(C)c1/C=C/S(=O)(=O)N1CCC2(CC1)N=C(c1ccc(Cl)c(Cl)c1)NC2=O [Compound 1185, 2-(3,4-Dichloro-phenyl)-8-{(E)-2-[4-(4-hydroxy-4-methyl-piperidine-1-carbonyl)-2,6-dimethyl-phenyl]-ethenesulfonyl}-1,3,8-triaza-spiro[4.5]dec-1-en-4-one] |
| 110 | Cc1cc(C(=O)N2CCC(C)(O)CC2)cc(C)c1/C=C/S(=O)(=O)N1CCC2(CC1)N=C(c1ccc(F)c(Cl)c1)NC2=O [Compound 1186, 2-(3-chloro-4-fluoro-phenyl)-8-{(E)-2-[4-(4-hydroxy-4-methyl-piperidine-1-carbonyl)-2,6-dimethyl-phenyl]-ethenesulfonyl}-1,3,8-triaza-spiro[4.5]dec-1-en-4-one] |
| 75 | Cc1cc(C(=O)N2CCC(C)(O)CC2)cc(C)c1/C=C/S(=O)(=O)N1CCC2(CC1)N=C(c1cccc(CC#N)c1)NC2=O [Compound 1187, [3-(8-{(E)-2-[4-(4-hydroxy-4-methyl-piperidine-1-carbonyl)-2,6-dimethyl-phenyl]-ethenesulfonyl}-4-oxo-1,3,8-triaza-spiro[4.5]dec-1-en-2-yl)-phenyl]-acetonitrile] |
| 99 | Cc1cc(C(=O)N2CCC(C)(O)CC2)cc(C)c1/C=C/S(=O)(=O)N1CCC2(CC1)N=C(c1ccc(C(F)(F)F)c(Cl)c1)NC2=O [Compound 1188, 2-(3-chloro-4-trifluoromethyl-phenyl)-8-{(E)-2-[4-(4-hydroxy-4-methyl-piperidine-1-carbonyl)-2,6-dimethyl-phenyl]-ethenesulfonyl}-1,3,8-triaza-spiro[4.5]dec-1-en-4-one] |
